# According to US8080519B2, “Compositions and methods for enhanced pharmacological activity of compositions comprising peptide drug substances” (priority 1999, dated 2011):
# Experiments:
# [1] = test system: male Wistar rats; assay: hot plate test in rats (time to first licking of the posterior foot); type: in vivo, rat; settings: for Time to first signal activity after oral administration: morphine, codeine, ibuprofen 10 mg/kg; for Time to first signal activity after oral administration / Time to first signal activity after i.v. administration: CY5M 2.5 mg/kg; for Time to first signal activity after i.v. administration: morphine 1 mg/kg
# Experimental: The time to first licking of the posterior foot by the rat is recorded after the rat has been place on a hot plate maintained at an elevated temperature (40° C.). This procedure provides accurate data on central analgesic activities induced by various candidate drugs. Under placebo conditions, the time to first licking of the posterior foot of the test animal varies between 30 and 50 seconds. […] In the experiments reported herein, a standard hot plate test was used to assess analgesia and the time to first licking of the test animal's posterior foot was used as the triggering event for measurement of elapsed time as indicative of the pharmacological effect of the administered drug species.
# Seven groups of five male Wistar rats each were randomly assigned to the following treatments: placebo, 1 mg/kg morphine (i.v.), 10 mg/kg morphine (oral), 10 mg/kg codeine (oral), 10 mg/kg ibuprofen (oral), 2.5 mg/kg CY5M (i.v.), and 2.5 mg/kg CY5M (oral). The method was pre-validated with two oral and i.v. administrations of saline placebo and the results were similar to those obtained with placebo in the experiment reported below.
# [2] = cited from earlier work
# [3] = cited from earlier work; remark: listed apart in the source
# [4] = test system: splenocytes; assay: T cell proliferation in a skin immunization model (tritiated thymidine incorporation by splenocytes); type: in vivo, mice; settings: for Proliferation Index: splenocytes grown 4 days, 2 weeks after skin immunization; for proliferation index, overall comparison: comparison among the tested formulations
# Experimental: Model: • 9 week old mice were immunized by application on bare skin of 100·g of Nef(66-97) peptide sequence and modifications thereof in addition to 5·g of choleric toxin and 100·g of oligodeoxynucleotide containing a CpG moiety (Immunology, 2002 104:1-14). 2 weeks later splenocytes were collected and grown over 4 days in the presence of 4 different concentrations of Nef(66-97) peptide (SEQ ID NO:2). The proliferation was measured by incorporating tritiated thymidine.
compound,measurement,setting,value
COc1ccc2c3c1O[C@H]1[C@@H](O)C=C[C@H]4[C@@H](C2)N(C)CC[C@@]341 [Codeine],Time to first signal activity after oral administration,"[1]; oral, 0 h",53.2 s
same,Time to first signal activity after oral administration,"[1]; oral, 1 h",51.4 s
same,Time to first signal activity after oral administration,"[1]; oral, 2 h",64.6 s
same,Time to first signal activity after oral administration,"[1]; oral, 4 h",57.6 s
same,Time to first signal activity after oral administration,"[1]; oral, 6 h",56.2 s
same,Time to first signal activity after oral administration,"[1]; oral, 24 h",46.4 s
CCOC(=O)[C@H](CCc1ccccc1)N[C@@H](C)C(=O)N1CCC[C@H]1C(=O)O [Enalapril],oral absorption,[2],better absorbed orally
C[C@H](N[C@@H](CCc1ccccc1)C(=O)O)C(=O)N1CCC[C@H]1C(=O)O [Enalaprilat],oral absorption,[2],very poorly absorbed orally
CC(C)Cc1ccc(C(C)C(=O)O)cc1 (stereo not drawn) [Ibuprofen],Time to first signal activity after oral administration,"[1]; oral, 0 h",53.2 s
same,Time to first signal activity after oral administration,"[1]; oral, 1 h",55.0 s
same,Time to first signal activity after oral administration,"[1]; oral, 2 h",70.4 s
same,Time to first signal activity after oral administration,"[1]; oral, 4 h",66.0 s
same,Time to first signal activity after oral administration,"[1]; oral, 6 h",54.0 s
same,Time to first signal activity after oral administration,"[1]; oral, 24 h",44.2 s
NCCCC[C@H](N[C@@H](CCc1ccccc1)C(=O)O)C(=O)N1CCC[C@H]1C(=O)O [Lisinopril],oral bioavailability,[2],< 25%
same,Tmax (time to maximum serum levels in vivo),[2]; oral,more than seven
same,solubility in water,[3],relatively good solubility in water
CN1CC[C@]23c4c5ccc(O)c4O[C@H]2[C@@H](O)C=C[C@H]3[C@H]1C5 [Morphine],duration of analgesic effect,[1]; i.v. administration,six
same,Time to first signal activity after i.v. administration,"[1]; i.v., 0 h",51.8 s
same,Time to first signal activity after i.v. administration,"[1]; i.v., 1 h",118.8 s
same,Time to first signal activity after i.v. administration,"[1]; i.v., 2 h",86.6 s
same,Time to first signal activity after i.v. administration,"[1]; i.v., 4 h",63.2 s
same,Time to first signal activity after i.v. administration,"[1]; i.v., 6 h",45.6 s
same,Time to first signal activity after i.v. administration,"[1]; i.v., 24 h",40.0 s
same,duration of analgesic effect,[1]; oral administration,six
same,Time to first signal activity after oral administration,"[1]; oral, 0 h",51.8 s
same,Time to first signal activity after oral administration,"[1]; oral, 1 h",84.8 s
same,Time to first signal activity after oral administration,"[1]; oral, 2 h",81.2 s
same,Time to first signal activity after oral administration,"[1]; oral, 4 h",58.8 s
same,Time to first signal activity after oral administration,"[1]; oral, 6 h",48.8 s
same,Time to first signal activity after oral administration,"[1]; oral, 24 h",42.0 s
Cinnamoyl-Nef(66-97) G95ψ . . . (CH2—CH2) G96 [C0],Proliferation Index,[4]; Conc. of Nef peptide 0.5,12
same,Proliferation Index,[4]; Conc. of Nef peptide 5,14
same,Proliferation Index,[4]; Conc. of Nef peptide 50,12
same,Proliferation Index,[4]; Conc. of Nef peptide .05,08
Cinnamoyl-aminooctanoyl-Nef(66-97) G95ψ . . . (CH2—CH2) G96 [CC8],Proliferation Index,[4]; Conc. of Nef peptide 0.5,22
same,Proliferation Index,[4]; Conc. of Nef peptide 5,20
same,Proliferation Index,[4]; Conc. of Nef peptide 50,16
same,Proliferation Index,[4]; Conc. of Nef peptide .05,10
same,"proliferation index, overall comparison",[4],best proliferation index
Cinnamoyl-aminovaleryl-Nef(66-97) G95ψ . . . (CH2—CH2) G96 [CC5],Proliferation Index,[4]; Conc. of Nef peptide 0.5,22
same,Proliferation Index,[4]; Conc. of Nef peptide 5,21
same,Proliferation Index,[4]; Conc. of Nef peptide 50,20
same,Proliferation Index,[4]; Conc. of Nef peptide .05,11
same,"proliferation index, overall comparison",[4],best proliferation index
D-Gal(OPiv)4-hydroxyvaleryl-aminooctanoyl-Nef(66-97) • G95ψ . . . (CH2—CH2) G96 [Pivgal],Proliferation Index,[4]; Conc. of Nef peptide 0.5,05
same,Proliferation Index,[4]; Conc. of Nef peptide 5,08
same,Proliferation Index,[4]; Conc. of Nef peptide 50,10
same,Proliferation Index,[4]; Conc. of Nef peptide .05,02
Nef(66-97)-palmitoyl lysilamide [Lipo],Proliferation Index,[4]; Conc. of Nef peptide 0.5,06
same,Proliferation Index,[4]; Conc. of Nef peptide 5,08
same,Proliferation Index,[4]; Conc. of Nef peptide 50,07
same,Proliferation Index,[4]; Conc. of Nef peptide .05,03
Tyr-Gly-Gly-Phe-Met [Met-Enkephalin],duration of transient effect after i.v. administration,"[1]; preliminary study, i.v.",about 15 minutes
same,analgesic effect after oral administration,"[1]; preliminary study, oral, 5 mg/kg dose",unable to demonstrate any effect
VGFPVTPQVPLRPMTYKAAVDLSHFLKEKGGL [Nef],Proliferation Index,[4]; Conc. of Nef peptide 0.5,10
same,Proliferation Index,[4]; Conc. of Nef peptide 5,13
same,Proliferation Index,[4]; Conc. of Nef peptide 50,10
same,Proliferation Index,[4]; Conc. of Nef peptide .05,03
cinnamoyl-Met-Enkephalin [CY5M],duration of analgesic effect,[1]; i.v. administration,≥ 24 h
same,Time to first signal activity after i.v. administration,"[1]; i.v., 0 h",51.0 s
same,Time to first signal activity after i.v. administration,"[1]; i.v., 1 h",57.0 s
same,Time to first signal activity after i.v. administration,"[1]; i.v., 2 h",114.0 s
same,Time to first signal activity after i.v. administration,"[1]; i.v., 4 h",88.2 s
same,Time to first signal activity after i.v. administration,"[1]; i.v., 6 h",106.0 s
same,Time to first signal activity after i.v. administration,"[1]; i.v., 24 h",86.6 s
same,effectiveness relative to morphine by the same route (area under the dose response curve),"[1]; i.v., CY5M 2.5 mg/kg vs morphine 1 mg/kg",at least 8 times
same,duration of analgesic effect,[1]; oral administration,≥ 24 h
same,Time to first signal activity after oral administration,"[1]; oral, 0 h",53.6 s
same,Time to first signal activity after oral administration,"[1]; oral, 1 h",46.2 s
same,Time to first signal activity after oral administration,"[1]; oral, 2 h",78.8 s
same,Time to first signal activity after oral administration,"[1]; oral, 4 h",78.2 s
same,Time to first signal activity after oral administration,"[1]; oral, 6 h",82.6 s
same,Time to first signal activity after oral administration,"[1]; oral, 24 h",98.8 s
same,effectiveness relative to morphine by the same route (area under the dose response curve),"[1]; oral, CY5M 2.5 mg/kg vs morphine 10 mg/kg",at least 8 times
